Counter-ions that a name gives are not always drawn.

We go through 11 molecules from patent EP4227307A1 (Genzyme Corporation, priority 2022, dated 2023).

This assay deals with T1, human recombinant 6His-Nterm SHP2 full-length (Thr2-Arg593) (Homo sapiens, UniProt Q06124).
T1 construct: 6His-Nterm SHP2 full-length (Thr2-Arg593, R&D system); 6His (N); purchased R&D system
T1 sequence (Q06124 2-593): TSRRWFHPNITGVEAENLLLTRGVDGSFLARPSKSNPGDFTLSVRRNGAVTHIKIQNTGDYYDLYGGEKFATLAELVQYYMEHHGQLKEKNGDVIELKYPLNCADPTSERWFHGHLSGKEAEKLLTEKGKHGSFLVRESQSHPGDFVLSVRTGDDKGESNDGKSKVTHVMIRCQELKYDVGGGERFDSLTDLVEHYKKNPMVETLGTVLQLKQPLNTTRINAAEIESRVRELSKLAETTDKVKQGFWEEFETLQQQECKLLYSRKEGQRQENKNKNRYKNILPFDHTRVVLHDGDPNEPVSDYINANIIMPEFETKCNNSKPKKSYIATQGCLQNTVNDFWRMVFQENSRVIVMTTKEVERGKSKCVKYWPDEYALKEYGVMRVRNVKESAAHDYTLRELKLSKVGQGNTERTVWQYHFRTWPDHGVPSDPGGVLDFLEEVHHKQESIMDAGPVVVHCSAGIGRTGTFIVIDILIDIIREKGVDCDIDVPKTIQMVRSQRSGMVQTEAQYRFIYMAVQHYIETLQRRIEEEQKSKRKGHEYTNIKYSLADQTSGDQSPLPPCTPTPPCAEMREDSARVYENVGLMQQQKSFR
Description: SHP2 Phosphatase Assay (DiFMUP fluorescence). The assay is classed as biochemical. The conditions noted are these: SHP2 0.2 nM pre-incubated with 100 nM bi-phosphorylated activating peptide; compound 1000-0.05 nM, 30 min pre-incubation; DiFMUP 20 µM, 45 min, room temperature; 10-concentration dose-response. Here is the method: Inhibition of SHP2 phosphatase activity was evaluated using human recombinant 6His-Nterm SHP2 full-length (Thr2-Arg593, R&D system), NsCs bi-phosphorylated activating peptide (NH2-LN(pY)AQLWHA(PEG8)LTI(pY)ATIRRF-Amide.acetate, Thermofischer Scientific) and DiFMUP as surrogate phosphatase substrate (Molecular Probes). All reactions were performed at room temperature in 384-well black polystyrene non-binding plate (Corning) with the assay buffer (50 mM HEPES-NaOH pH 7.2, 100 mM NaCl, 0.5 mM EDTA, 0.001% Brij35 including 0.02% BSA and 1 mM DTT added extemporaneously). SHP2 was pre-incubated at least 10 min with the activating peptide (0.2 nM and 100 nM, respectively). 10 µL of this mixture was added to the assay plate, that already contained 15 nL of the compound (1000-0.05 nM). After 30 min pre-incubation, the enzymatic reaction was initiated by the addition of 5 µL DiFMUP in assay buffer without BSA (20 µM). The reaction was stopped by the addition of 15 µL sodium pervanadate solution (100 µM) after 45 min incubation. The fluorescence signal was measured at excitation and emission wavelengths of 350 nm and 450 nm, respectively, using a Pherastar instrument (BMG-LabTech). Percentage of inhibition […] were calculated from the fluorescence signal at 450 nm of the positive and negative control using the following formula: I% = ((signal Max−signal Sample)/(signal Max−signal Min control)) × 100 [formula]
Positive control (Max): corresponds to the maximum fluorescence signal obtained in the presence of 15 nL DMSO replacing the inhibitor in the pre-incubation step.
Negative control (Min): corresponds to the minimum signal obtained in the presence of 1 µM of RMC-4550, the structure of which is shown below: [drawing 464]
The IC50 were then calculated from a dose-response curve of 10 concentrations of tested compound using the 4-parameter logistic model: I% = A + (C)/(1 + exp(−B×log(X)−M)) [formula]
The parameters A and (A+C) are the lower and upper limits, B is the slope of the curve at the inflexion point, M parameter is the logarithm of the abscissa at the inflexion point, and X is the concentration of compound.
Turning to `Cc1nccc(-c2c(C)nc(N3CCC4(CC3)Cc3cccnc3[C@H]4N)c3ccnn23)c1Cl` [Compound 13, (7S)-1'-[7-(3-chloro-2-methyl-4-pyridyl)-6-methyl-pyrazolo[1,5-a]pyrazin-4-yl]spiro[5,7-dihydrocyclopenta[b]pyridine-6,4'-piperidine]-7-amine], the IC50 stood at 7 nM.
As to `Cc1nc(N2CCC3(CC2)Cc2ncccc2[C@H]3N)c2ccnn2c1-c1cccc(F)c1Cl` [Compound 2, (5S)-1'-(7-(2-chloro-3-fluorophenyl)-6-methylpyrazolo[1,5-a]pyrazin-4-yl)-5,7-dihydrospiro[cyclopenta[b]pyridine-6,4'-piperidin]-5-amine], the IC50 stood at 6 nM.
Under `Cc1nc(N2CCC3(CC2)Cc2ncccc2[C@H]3N)c2c(F)cnn2c1-c1ccccc1` [Compound 143, (5S)-1'-(3-fluoro-6-methyl-7-phenyl-pyrazolo[1,5-a]pyrazin-4-yl)spiro[5,7-dihydrocyclopenta[b]pyridine-6,4'-piperidine]-5-amine hydrochloride] stands 39 nM; under `Cc1nc(N2CCC3(CC2)Cc2ncccc2[C@H]3N)c2c(C(F)F)cnn2c1-c1ccccc1F` [Compound 147, (5S)-1'-[3-(difluoromethyl)-7-(2-fluorophenyl)-6-methyl-pyrazolo[1,5-a]pyrazin-4-yl]spiro[5,7-dihydrocyclopenta[b]pyridine-6,4'-piperidine]-5-amine], more than 1000 nM.
`Cc1nc(N2CCC3(CC2)Cc2ncccc2[C@H]3N)c2ccnn2c1-c1ccc(F)c2cc[nH]c12` [Compound 208, (5S)-1'-[7-(4-fluoro-1H-indol-7-yl)-6-methyl-pyrazolo[1,5-a]pyrazin-4-yl]spiro[5,7-dihydrocyclopenta[b]pyridine-6,4'-piperidine]-5-amine]: the IC50 was found to be 3 nM.
For `COc1ccc2c(c1)[C@@H](N)C1(CCN(c3nc(C)c(-c4ccncc4Cl)n4nccc34)CC1)C2` [Compound 119, hydrochloride], the IC50 is 4 nM.
Under `COc1cnc2c(c1)[C@@H](N)C1(CCN(c3nc(C)c(-c4cccc(F)c4F)n4nccc34)CC1)C2` [Compound 24, (5S)-1'-[7-(2,3-difluorophenyl)-6-methyl-pyrazolo[1,5-a]pyrazin-4-yl]-3-methoxy-spiro[5,7-dihydrocyclopenta[b]pyridine-6,4'-piperidine]-5-amine] stands 11 nM; under `Cc1nc2c(o1)[C@@H](N)C1(CCN(c3nc(C)c(-c4ccccc4F)n4nccc34)CC1)C2` [Compound 224, (6S)-1'-[7-(2-fluorophenyl)-6-methyl-pyrazolo[1,5-a]pyrazin-4-yl]-2-methyl-spiro[4,6-dihydrocyclopenta[d]oxazole-5,4'-piperidine]-6-amine], 27 nM.
Regarding `COc1cccc2c1CC1(CCN(c3nc(C)c(-c4ccnc(C)c4Cl)n4nccc34)CC1)[C@@H]2N` [Compound 110, (1S)-1'-[7-(3-chloro-2-methyl-4-pyridyl)-6-methyl-pyrazolo[1,5-a]pyrazin-4-yl]-4-methoxy-spiro[indane-2,4'-piperidine]-1-amine], the half-maximal inhibitory concentration (IC50) amounted to 11 nM.
For the molecule `Cc1nccc(-c2c(C)nc(N3CCC4(CC3)Cc3ccncc3[C@H]4N)c3ccnn23)c1F` [Compound 140, (7S)-1'-[7-(3-fluoro-2-methyl-4-pyridyl)-6-methyl-pyrazolo[1,5-a]pyrazin-4-yl]spiro[5,7-dihydrocyclopenta[c]pyridine-6,4'-piperidine]-7-amine], the half-inhibitory concentration (IC50) stood at 7 nM.
Then `Cc1nc(N2CCC3(CC2)Cc2ncccc2[C@H]3N)c2ccnn2c1-c1cc(C(F)(F)F)ccc1F` [Compound 187, (5S)-1'-[7-[2-fluoro-5-(trifluoromethyl)phenyl] -6-methyl-pyrazolo[1,5-a]pyrazin-4-yl]spiro[5,7-dihydrocyclopenta[b]pyridine-6,4'-piperidine]-5-amine], with 250 nM.
